Reference: article PMC8724943 (Translational Oncology, 2021)
pIC50: −log10 of the molar value.

Molecular target: p21 activated kinase 4 (PAK4) (Homo sapiens, UniProt O96013)
Test: in vitro radiometric kinase assay
Type: biochemical

p21 activated kinase 4 (PAK4), sequence (O96013 whole entry): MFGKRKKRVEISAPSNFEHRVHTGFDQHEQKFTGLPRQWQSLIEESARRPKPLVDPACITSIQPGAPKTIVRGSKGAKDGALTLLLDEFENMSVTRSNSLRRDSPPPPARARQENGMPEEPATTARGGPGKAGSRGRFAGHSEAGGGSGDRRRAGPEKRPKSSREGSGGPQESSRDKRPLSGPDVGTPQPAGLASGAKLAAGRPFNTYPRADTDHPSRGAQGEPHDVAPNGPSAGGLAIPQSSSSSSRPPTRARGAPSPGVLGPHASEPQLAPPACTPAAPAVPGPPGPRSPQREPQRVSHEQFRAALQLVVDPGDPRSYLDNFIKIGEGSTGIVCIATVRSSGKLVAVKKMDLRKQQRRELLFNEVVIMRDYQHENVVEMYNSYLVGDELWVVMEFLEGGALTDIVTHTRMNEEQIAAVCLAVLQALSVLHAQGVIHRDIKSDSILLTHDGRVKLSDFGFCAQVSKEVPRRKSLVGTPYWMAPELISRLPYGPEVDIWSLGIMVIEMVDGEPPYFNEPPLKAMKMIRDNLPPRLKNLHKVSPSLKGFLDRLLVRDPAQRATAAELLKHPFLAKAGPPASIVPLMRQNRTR

Substance: PAKib
- pIC50: ~6.30
